This is an account of results in patent US20030017976A1, “Therapeutic properties of liposome-encapsulated immunomodulators” (priority 1998, published 2003).

The subject of series [1] is peritoneal exudate macrophages (PEM). The experiment in a line: Nitrite (NO) production by mouse peritoneal exudate macrophages. In kind it is cell-based. The settings on record: PEM with 50 umol/well MLV (0.1 mg JBT3002/300 μM phospholipid) in the presence of 2 mM NMA. Here is the method:
Peritoneal exudate macrophages (PEM) were collected by peritoneal lavage from mice given an intraperitoneal injection of 2.0 ml of thioglycollate broth (Baltimore Biological Laboratory, Cockeysville, Md.) 4 days before harvest (Dong Z, O'Brian C A, et al. J Leukoc Biol (1993) 53:53-60; Xie K, Huang S, et al. Cancer Res (1995) 55:3123-31). The PEM were washed in Ca^+2- an Mg^2+-free HBSS and resuspended in serum-free medium: 1×10^5 cells were plated into each 38-mm^2 well of 96-2311 culture plates (Falcon Plastics, Oxnard, Calif.). After a 90-min incubation, the nonadherent cells were removed by washing with medium. More than 98% of the adherent cell populations were macrophages according to morphology and phagocytic criteria (Saiki I, et al. J Immunol (1985) 135:684-8). […] After treatment, the cultures were washed and macrophage-mediated cytotoxicity against different tumor targets was determined. […]
Nitrite accumulation in the culture supernatant was measured in a colorimetric assay as described previously (Ding A E, et al. J Immunol (1988) 141:2407-12). […] The mixtures were incubated 10 min with shaking, and A540 was measured with the use of a microplate reader (Model 3550; Bio-Rad Corp., San Francisco, Calif.). The concentration of nitrite was determined by comparing it with a standard solution of sodium nitrite in medium.

For the next series, the system named is tumor cells. As to the kind of experiment: Macrophage-mediated tumor cytotoxicity, target cells not named. Type of series: cell-based. The settings on record: PEM with 50 umol/well MLV (0.1 mg JBT3002/300 μM phospholipid) in the presence of 2 mM NMA. Here is the method:
Cytotoxicity was assayed by measuring release of radioactivity from target cell DNA as described previously (Dong Z, et al. J Exp Med (1993) 177:1071-7). Briefly, tumor target cells in their exponential growth phase were incubated in medium containing 0.25 μCi/ml of [^3H]TdR (sp. Act. 2 Ci/mmol) (ICN Biomedicals, Inc., Irvine, Calif.) for 24 h. The cells were washed three times with HBSS to remove unbound radioactivity and then harvested by trypsinization (0.25% trypsin in 0.02% EDTA), washed, and resuspended in medium. Cells were plated (at 1×10^4/well) into wells containing control or test macrophages to achieve an E/T cell ratio of 10:1. At this density, macrophages incubated in medium (control) were not cytotoxic to neoplastic cells (Weinstein SL, et al. Proc Natl Acad Sci USA (1991) 88:4148-52; Dong Z, et al. JLeukoc Biol (1993) 53:53-60). […] The lysate was harvested with harvester 96 (Tomtec, Orange, Conn.) and counted for residual radioactivity in a liquid scintillation counter. Macrophage-mediated cytotoxicity was calculated as follows: […]
Efficient activation of macrophages by LPS requires priming by IFN-γ (Saiki I, et al. J Immunol (1985) 135:684-8). […] Tumor cytotoxicity was measured 72 h after the addition of radiolabeled tumor cells to the activated macrophages. […]

The test system of a further series is K-1735 M2 cells. As to the kind of experiment: Macrophage-mediated cytotoxicity against K-1735 M2 cells. In kind it is cell-based, mouse. Conditions: PEM activated by JBT3002.
In series [2] the test system is PEM (TNF-α, IL-1α, IL-6, NO). The experiment in a line: Cytokine and nitrite production by PEM (ELISA, Griess). Type of series: cell-based, mouse. Conditions: PEM treated with LPS or MLV-JBT3002, genistein 100 μM, PD-98059 10 μM, calphostin-C 250 nM. Here is the method: Peritoneal exudate macrophages (PEM) were collected by peritoneal lavage from mice given an intraperitoneal injection of 1.5 ml of thioglycollate broth (Baltimore Biological Laboratory, Cockeysville, Md.) 4 days before harvest.(Saiki I, et al. J Immunol (1985) 135:684 688; Dong Z, et a.l J Leukoc Biol (1993) 53:53-60; Dong Z, J et al. J Exp Med (1993) 177:1071-1077) The PEM were washed in CA^2+- and MG^2+-free HBSS and resuspended in serum-free medium: 1×10^5 cells were plated into each 38-mm^2 well of 96-well culture plates (Falcon Plastics, Oxnard, Calif.). After a 90-minute incubation, the nonadherent cells were removed by washing them with medium. More than 98% of the adherent cell populations were macrophages according to morphology and phagocytic criteria. (Saiki I, et al. J Immunol (1985) 135:684 688)
PEM in 96-well plates at a density of 10^5 cells/well/200 μl of medium were treated as indicated in Results. The culture supernatants were harvested and used immediately for the cytokine assays or stored at −70° C. For cell lysates, supernatants were removed and macrophages were frozen-thawed in fresh medium. Specific cytokines in the supernatants or cell lysates (diluted at 1:5 or 1:10) were measured by ELISA kits according to manufacturer's instructions.
The nitrite concentration in culture supernatants was determined by a microplate assay as described previously. Briefly, 50-μl samples harvested from PEM-conditioned medium were treated with an equal volume of Griess reagent (1% sulfanilamide, 0.1% naphthylene diamine dihydrochloride, and 2.5% H3PO4) at room temperature for 10 minutes. The absorbance at 540 nm was monitored with a microplate reader. The nitrite concentration was determined using sodium nitrite as a standard.

As to `CNC(=N)NCCC[C@H](N)C(=O)O` [NMA, N^G-monomethyl-L-arginine], in series [1], the NO is 1.6 µM. In addition, the tumor cytotoxicity with tumor cells stood at 1.3%.

`O=c1c(-c2ccc(O)cc2)coc2cc(O)cc(O)c12` [genistein, Genistein] registered a minimal inhibition dose with K-1735 M2 cells of 30 to 40 µM. Further, the “effect of kinase inhibitor on production of NO” value in series [2] is reported as “significantly inhibited”. Besides, the “effect of kinase inhibitor on production of TNF-α” value in series [2] (H-89) is listed as “significantly inhibited”.
